Consider 4 molecules from patent US11691949B2, “Quinoline sulfonamide compounds and their use as antibacterial agents” (OTAGO INNOVATION LIMITED, priority 2017, dated 2023).

What all share (format): cell-based
For experiment [1], the system named is S. uberis ATCC 19436. As to the kind of experiment: MIC by broth microdilution, S. uberis. As to conditions: Streptococcus uberis. Put shortly:
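This broth microdilution assay used S. uberis ATCC 19436 in Todd Hewitt Broth, with zinc sulphate heptahydrate added where required to a final 50 μM. Inhibitor concentration ranges came from two-fold serial dilutions in 96-well flat bottom plates at 200 μl. Approximately 5×10^5 cfu/mL cells were incubated for 24 h at 37° C. and 200 rpm. Wells were then read at OD600 on a Varioskan Flash reader.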
Background: In broth dilution the organism is exposed to a series of concentrations in liquid medium.

The test system of experiment [2] is S. aureus ATCC 6538. Kind of experiment: MIC by broth microdilution, S. aureus. As to conditions: Staphylococcus aureus. The procedure, abridged:
(§1)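 Media: TSB or CAMHB for S. aureus, LB or CAMHB for E. coli, with zinc sulphate to 50 μM final where required. Cells at ~5×10^5 cfu/mL met two-fold compound series; growth was scored by OD600 after 24 h shaking at 37° C.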

Another experiment relates to E. coli ATCC 10596. As to the kind of experiment: MIC by broth microdilution, E. coli. As to conditions: Escherichia coli. Put shortly:
as §1

Experiment [3] has as its system S. uberis ATCC 19436. Kind of experiment: MBC by Miles-Misra drop-plate method, S. uberis. As to conditions: Streptococcus uberis. As for the experimental part: (§2) Antibacterial susceptibility testing was performed in triplicate (biological) by measuring minimum inhibitory concentrations (MICs) by broth microdilution in 96-well flat bottom microtiter plates (ThermoFisher Scientific, New Zealand). S. uberis ATCC 19436, S. aureus ATCC 6538, or E. coli ATCC 10596 cells grown overnight were diluted to an OD600 of approximately 0.025, so that the final concentration of cells in the MIC assay was approximately 5×10^5 cfu/mL in media as follows: S. uberis; Todd Hewitt Broth (THB), S. aureus; Tryptic Soy Broth (TSB) and Cation Adjusted Muller Hinton Broth (CAMHB), and E. coli; Lysogeny Borth (LB) and CAMHB, before being dispensed into microtiter wells. As required additional sterile Zinc Sulphate (Heptahydrate) was supplemented into the media, so the final concentration was 50 μM. Test compounds were added to starting wells and two-fold serial dilutions were undertaken to generate a range of inhibitor concentrations at a final volume of 200 μl. Media and test compound-free (untreated) controls were included in each microtiter plate in triplicate. After 24 h incubation at 37° C. and 200 rpm, the OD600 of wells were read using a Varioskan Flash plate reader (ThermoFisher Scientific, New Zealand). The MIC was reported as the lowest concentration of the test compound for which no growth occurred, as determined by OD600 readings. The minimum bactericidal concentration (MBC) was determined using the Miles-Misra drop-plate method to measure the viability of cells in response to test compound challenge.

Experiment [4] has as its system S. aureus ATCC 6538. Kind of experiment: MBC by Miles-Misra drop-plate method, S. aureus. As to conditions: Staphylococcus aureus. Here is the method:
as §2

A further experiment deals with E. coli ATCC 10536. Kind of experiment: MBC by Miles-Misra drop-plate method, E. coli. As to conditions: Escherichia coli. Here is the method:
as §2

Setting [5] is: ATCC19436, No Zinc, read-out: S. uberis ATCC 19436 MIC.
Setting [6] is: ATCC19436, Zinc (50 μM), read-out: S. uberis ATCC 19436 MIC.
Where [7] appears, read: ATCC6538, No Zinc, read-out: S. aureus ATCC 6538 MIC.
The mark [8] stands for this setting: ATCC6538, Zinc (50 μM), read-out: S. aureus ATCC 6538 MIC.
The mark [9] stands for this setting: ATCC 10536 / ATCC 10596, No Zinc, read-out: E. coli ATCC 10536 MIC.
Setting [10] is: ATCC 10536 / ATCC 10596, Zinc (50 μM), read-out: E. coli ATCC 10536 MIC.
Setting [11] is: ATCC19436, No Zinc, read-out: S. uberis ATCC 19436 MBC.
The mark [12] stands for this setting: ATCC19436, Zinc (50 μM), read-out: S. uberis ATCC 19436 MBC.
Setting [13] is: ATCC6538, No Zinc, read-out: S. aureus ATCC 6538 MBC.
[14] abbreviates: ATCC6538, Zinc (50 μM), read-out: S. aureus ATCC 6538 MBC.
[15] abbreviates: ATCC10536, No Zinc, read-out: E. coli ATCC 10536 MBC.
[16] abbreviates: ATCC10536, Zinc (50 μM), read-out: E. coli ATCC 10536 MBC.

Values after ≈ are worked out from the molar mass of the structure shown. Counter-ions that a name gives are not always drawn. Like-named read-outs stand apart in the source and are kept apart here.

The term MIC denotes the smallest concentration in the dilution series that meets the test's criterion for growth inhibition. One may read the MBC as the lowest tested concentration that kills the bacteria rather than only halting them. Regarding `O=[N+]([O-])c1ccc(O)c(NCc2ccc3cccc(NS(=O)(=O)c4ccc(C(F)(F)F)cc4)c3n2)c1` [ZDR170, N-(2-(((2-Hydroxy-5-nitrophenyl)amino)methyl)quinolin-8-yl)-4-(trifluoromethyl)benzenesulfonamide], the MIC in the experiment with S. uberis ATCC 19436 [1] (setting [5]) was found to be 8 µg/mL (≈ 15.4 µM); with S. uberis ATCC 19436 [1] (setting [6]), 1 µg/mL (≈ 1.93 µM); in the experiment with S. aureus ATCC 6538 [2] (setting [7]), 8 µg/mL (≈ 15.4 µM); in the experiment with S. aureus ATCC 6538 [2] (setting [8]), 4 µg/mL (≈ 7.71 µM); in the experiment with E. coli ATCC 10596 (setting [9]) it was 256 µg/mL (≈ 494 µM); with E. coli ATCC 10596 (setting [10]) it was 256 µg/mL (≈ 494 µM). Further, the MBC was 16 µg/mL (≈ 30.9 µM) with S. uberis ATCC 19436 [3] (setting [11]); 2 µg/mL (≈ 3.86 µM) in the experiment on S. uberis ATCC 19436 [3] (setting [12]); 128 µg/mL (≈ 247 µM) in the experiment with S. aureus ATCC 6538 [4] (setting [13]); 128 µg/mL (≈ 247 µM) with S. aureus ATCC 6538 [4] (setting [14]); over 256 µg/mL with E. coli ATCC 10536 (setting [15]); over 256 µg/mL with E. coli ATCC 10536 (setting [16]).

`O=S(=O)(Nc1cccc2ccc(CNCCN3CCOCC3)nc12)c1ccc(C(F)(F)F)cc1` [ZDR112, N-(2-(((2-Morpholinoethyl)amino)methyl)quinolin-8-yl)-4-(trifluoromethyl)benzenesulfonamide]: the MIC with S. uberis ATCC 19436 [1] (setting [5]) was 64 µg/mL (≈ 129 µM); in the experiment on S. uberis ATCC 19436 [1] (setting [6]), 1 µg/mL (≈ 2.02 µM); in the experiment with S. aureus ATCC 6538 [2] (setting [7]), 16 µg/mL (≈ 32.4 µM); in the experiment on S. aureus ATCC 6538 [2] (setting [8]), 32 µg/mL (≈ 64.7 µM); in the experiment on E. coli ATCC 10596 (setting [9]), over 256 µg/mL; in the experiment with E. coli ATCC 10596 (setting [10]) it was over 256 µg/mL. For the same molecule, the MBC was 64 µg/mL (≈ 129 µM) in the experiment with S. uberis ATCC 19436 [3] (setting [11]); 2 µg/mL (≈ 4.04 µM) in the experiment on S. uberis ATCC 19436 [3] (setting [12]); over 256 µg/mL in the experiment on S. aureus ATCC 6538 [4] (setting [13]); 256 µg/mL (≈ 518 µM) in the experiment on S. aureus ATCC 6538 [4] (setting [14]); 128 µg/mL (≈ 259 µM) in the experiment with E. coli ATCC 10536 (setting [15]); over 256 µg/mL in the experiment on E. coli ATCC 10536 (setting [16]).

Regarding `O=S(=O)(Nc1cccc2ccc(CNCCCO)nc12)c1ccc(C(F)(F)F)cc1` [ZDR091, N-(2-(((3-Hydroxypropyl)amino)methyl)quinolin-8-yl)-4-(trifluoromethyl)benzenesulfonamide], the MIC in the experiment with S. uberis ATCC 19436 [1] (setting [5]) is 32 µg/mL (≈ 72.8 µM); in the experiment with S. uberis ATCC 19436 [1] (setting [6]) it was 0.125 µg/mL (≈ 0.284 µM); in the experiment with S. aureus ATCC 6538 [2] (setting [7]), 64 µg/mL (≈ 146 µM); in the experiment on S. aureus ATCC 6538 [2] (setting [8]), 32 µg/mL (≈ 72.8 µM); with E. coli ATCC 10596 (setting [9]), 256 µg/mL (≈ 583 µM); with E. coli ATCC 10596 (setting [10]) it was 256 µg/mL (≈ 583 µM). Moreover, the MBC with S. uberis ATCC 19436 [3] (setting [11]) is 16 µg/mL (≈ 36.4 µM); with S. uberis ATCC 19436 [3] (setting [12]) it was 0.5 µg/mL (≈ 1.14 µM); with S. aureus ATCC 6538 [4] (setting [13]), over 256 µg/mL; in the experiment with S. aureus ATCC 6538 [4] (setting [14]), 128 µg/mL (≈ 291 µM); in the experiment on E. coli ATCC 10536 (setting [15]), 256 µg/mL (≈ 583 µM); in the experiment on E. coli ATCC 10536 (setting [16]) it was 128 µg/mL (≈ 291 µM).

As for `N=C(N)NCc1ccc2cccc(NS(=O)(=O)c3ccc(C(F)(F)F)cc3)c2n1` [ZDR187, N-(2-(Guanidinomethyl)quinolin-8-yl)-4-(trifluoromethyl)benzenesulfonamide trifluoroacetate], the MIC amounted to 16 µg/mL with S. uberis ATCC 19436 [1] (ATCC19436, read-out: S. uberis ATCC 19436 MIC, No Zinc); 0.5 µg/mL in the experiment on S. uberis ATCC 19436 [1] (ATCC19436, read-out: S. uberis ATCC 19436 MIC, Zinc (50 μM)); 8 µg/mL in the experiment with S. aureus ATCC 6538 [2] (ATCC6538, read-out: S. aureus ATCC 6538 MIC, No Zinc); 8 µg/mL in the experiment on S. aureus ATCC 6538 [2] (ATCC6538, read-out: S. aureus ATCC 6538 MIC, Zinc (50 μM)); 32 µg/mL in the experiment on E. coli ATCC 10596 (ATCC 10536 / ATCC 10596, read-out: E. coli ATCC 10536 MIC, No Zinc); 16 µg/mL in the experiment on E. coli ATCC 10596 (ATCC 10536 / ATCC 10596, read-out: E. coli ATCC 10536 MIC, Zinc (50 μM)). The MBC in the experiment on S. uberis ATCC 19436 [3] (ATCC19436, read-out: S. uberis ATCC 19436 MBC, No Zinc) was determined as 16 µg/mL; in the experiment with S. uberis ATCC 19436 [3] (ATCC19436, read-out: S. uberis ATCC 19436 MBC, Zinc (50 μM)) it was 8 µg/mL; with S. aureus ATCC 6538 [4] (ATCC6538, read-out: S. aureus ATCC 6538 MBC, No Zinc), 32 µg/mL; with S. aureus ATCC 6538 [4] (ATCC6538, read-out: S. aureus ATCC 6538 MBC, Zinc (50 μM)), 32 µg/mL; in the experiment with E. coli ATCC 10536 (ATCC10536, read-out: E. coli ATCC 10536 MBC, No Zinc), 64 µg/mL; with E. coli ATCC 10536 (ATCC10536, read-out: E. coli ATCC 10536 MBC, Zinc (50 μM)), 16 µg/mL.
